Laboratory results taken from US6225478A, “Iridoid derivatives and neovascularization inhibitors containing the same as active ingredient” (Tsumura & Co., priority 1999, dated 2001).

What was measured:
[1] = test system: human umbilical-vein endothelial cells (HUVEC); assay: Tube Formation Assay (TFA) Test, HUVEC in collagen gel; assay type: cell-based; settings: Homo sapiens, HUVEC, Tables 75-83; 0.32 mM sample solution; method as for Compounds 1 through 60; read-out: TFA Inhibition rate (%)
Protocol: Furthermore, the sample liquids of compounds used in the CPA and CMA tests were prepared in the manner described below. Firstly, after weighing out each compound, a calculated amount of DMSO was added. After dissolving the compound in the DMSO, phosphate buffered physiological saline (PBS (-)) was added to bring the sample concentration to 1 mg/ml in PBS (-). The amount of DMSO used to dissolve the compounds was adjusted in advance to that the concentration of DMSO at that time was 5%. The resulting liquids were diluted 10-fold with 5% DMSO-PBS (-) solution to prepare sample solutions having a concentration of 0.1 mg/ml. In the TFA test, 320 μl of the prepared 1 mg/ml sample solutions were removed followed by addition of 680 μl of PBS (-) to prepare samples having a concentration of […]. Moreover, 100 μl of this solution was removed followed by addition of 900 μl of PBS (-) to dilute 10-fold and prepare samples having a concentration of 1 μg/ml. P [Cell Proliferation Assay (CPA) Test]
To begin with, 8 volumes of Type 1-A cell matrix (manufactured by Gibco Co.), 1 volume of 10×M119, and 1 volume of reconstituted buffer [200 mM HEPES, 0.05 N sodium hydroxide, 260 mM sodium bicarbonate] were slowly mixed under cooling with ice while avoiding bubbling to form a collagen gel. This collagen gel was distributed in a NUNC 24-well plate at 310 μl/well followed by allowing to stand undisturbed for 2 hours at 37° C. to solidify the gel.
Next, the 7th subculture of HUVEC (1×10^5 cells/ml) obtained from the first generation in the same manner as above were disseminated at 500 μl/well. The cells were cultured for 2 hours at 37° C. to allow the cells to make contact with the collagen. After then removing the medium by aspiration, 50 μl of sample solution were added followed by addition of 310 μl/well of freshly prepared collagen gel and culturing for 1 hour and 10 minutes at 37° C. to solidify the double-layer gel.
1 ml/well of M-199 medium containing 20% FCS, 30 ng /ml of b-FGF and 0.1 μM PMA were added to the wells followed by culturing for 20 hours at 37° C. in the presence of 5% CO2.
Measurement of the lengths of the formed tubes was performed using the public domain NIH Image with a computer.
Evaluation was performed by calculating the inhibition rate (%) of tube formation according to the following formula.
Inhibition rate (%)=100-((formed tube length in presence of sample-formed tube length in presence of control (-))×100/(formed tube length in presence of control (+)-formed tube length in presence of control (-)))
(§1) Samples were prepared using the present compounds of Compound No. I-60 through I-315. More specifically, 32 μl of a 20 mM sample solution dissolved in dimethylsulfoxide (DMSO) were removed and brought to a volume of 1 ml with phosphate-buffered saline (PBS) to prepare a sample solution having a concentration of 0.32 mM (containing 3.2% DMSO).
The testing method used for these compounds was the same as that used for the compounds of Compound No. 1 through 60 previously described.

[2] = test system: HUFEC; assay: Cell Migration Assay (CMA) Test, inhibitory rate with control (-) correction; assay type: cell-based, human; settings: Homo sapiens, 24 h, 125 μl of 0.32 mM sample solution in 4.0 ml medium, 80% or more = remarkable
Protocol: as §1
After disseminating the 7th subculture of […] obtained from the first generation at 4 ml/well (3.0×10^5 cells/well) in a collagen-coated 6-well plate (NUNC), the cells were cultured for 48 hours at 37° C. in the presence of 5% CO2. The cells reached nearly a completely confluent state as a result of this culturing.
A double-edged, disposable razor blade was divided into four sections, of which one of those sections was pinched between a pair of forceps. Using this piece of razor blade, the cell surface in the above confluent state was scraped off.
After washing the surface of the wells from which the cells had been scraped off with medium, 4.0 ml of fresh M199 (2+) medium were placed in the wells. 4.0 ml of M199 medium were added to the control (-) well.
125 μl of sample solution (0.32 mM, containing 3.2% dimethylsulfoxide) were added to the wells.
125 μl of PBS solution containing 3.2% dimethylsulfoxide were added to the control wells instead of sample. The cells were cultured for 24 hours at 37° C. in the presence of 5% CO2. After discarding the culture liquid, the cells were fixed for 30 minutes with methanol. Next, after […] the cells for 4 hours with Giemsa stain, the plates were washed with tap water and air dried.
Measurement of cell migration was performed by microscopically counting the number of cells that had newly migrated within the range of a 1 mm×1 mm block. […] The total number of cells counted in blocks 1 through 5 were then totaled to determine the overall total number of cells. Four fields were counted for each well.
Evaluation was performed determining the cell migration inhibitory rate (%) according to the following equation.
Inhibitory rate=100-((number of migrating cells to which sample was added-number of migrating cells of control (-))×100/(number of migrating cells of control (+)-number of migrating cells of control (-)))
If this inhibitory rate was 80% or more, cell migration was assessed as being remarkable.

Compound	inhibition at 320 µM (stock) [1] [%]	inhibition at 320 µM (stock) [2] [%]
COC(=O)C1=CO[C@@H](OC(=O)NCc2ccc(OC(F)(F)F)cc2)[C@H]2[C@@H]1CC[C@@H]2C [I-211]	20.4	32.1
COC(=O)C1=CO[C@@H](OC(=O)N2CCC(Cc3ccccc3)CC2)[C@H]2[C@@H]1CC[C@@H]2C [I-199]	6	25
COC(=O)C1=CO[C@@H](OC(=O)NCc2cccnc2)[C@@H]2C(C)=CC[C@H]12 [I-76]	4.6	7.6
CNC(=O)O[C@@H]1OC=C(C)[C@H]2CC[C@H](C)[C@@H]12 [I-278]	20.2	125
COC(=O)C1=CO[C@@H](OC(=O)N2CC=C(c3ccccc3)CC2)[C@@H]2C(C)=CC[C@H]12 [I-140]	5.2	3.3
COC(=O)C1=CO[C@@H](OC(=O)N2CCN(CCO)CC2)[C@H]2[C@@H]1CC[C@@H]2C [I-180]	7.7	50
COC(=O)C1=CO[C@@H](OC(=O)N2CC=C(c3ccccc3)CC2)[C@H]2[C@@H]1CC[C@@H]2C [I-242]	4.8	5.1
COC(=O)C1=CO[C@@H](OC(=O)NC2CCN(Cc3ccccc3)CC2)[C@H]2[C@@H]1CC[C@@H]2C [I-192]	4.5	7.8
CCCCCC[C@]12O[C@H]1C[C@@H]1C(C(=O)OC)=COC[C@@H]12 [I-298]	9.5	7.8
COC(=O)C1=CO[C@@H](OC(=O)NCc2ccccc2F)[C@@H]2C(C)=CC[C@H]12 [I-126]	4	6.5
COC(=O)C1=CO[C@@H](OC(=O)NCc2ccccc2)[C@H]2[C@@H]1CC[C@@H]2C [I-183]	8.7	25.4
COC(=O)C1=CO[C@@H](OC(=O)NCCSCc2ccccc2)[C@@H]2C(C)=CC[C@H]12 [I-150]	32.3	5.4
CCN(CCO)C(=O)O[C@@H]1OC=C(C(=O)OC)[C@H]2CC[C@H](C)[C@@H]12 [I-203]	15.8	5.9
COC(=O)C1=CO[C@@H](OC(=O)N2CCc3ccccc3C2)[C@H]2[C@@H]1CC[C@@H]2C [I-225]	5.5	25
COC(=O)C1=CO[C@@H](OC(=O)Nc2ccc(Cl)cc2C(F)(F)F)[C@@H]2C(C)=CC[C@H]12 [I-164]	2.5	5.9
COC(=O)C1=CO[C@@H](OC(=O)NCCO)[C@H]2[C@@H]1CC[C@@H]2C [I-187]	11.7	31.3
O=C(C1=COC[C@@H]2C(CO)=CC[C@H]12)N1CCN(CCO)CC1 [I-301]	15.9	56
COC(=O)C1=CO[C@@H](OC(=O)NCC(OC)OC)[C@@H]2C(C)=CC[C@H]12 [I-96]	19.7	5.9
COC(=O)C1=CO[C@@H](OC(=O)Nc2ccc(F)cc2)[C@@H]2C(C)=CC[C@H]12 [I-156]	10.9	5.8
COC(=O)C1=CO[C@@H](OC(=O)N2CCc3ccccc3C2)[C@@H]2C(C)=CC[C@H]12 [I-120]	7.8	3.1

Compound	inhibition at 320 µM (stock) [1] [%]	inhibition at 320 µM (stock) [2] [%]
COC(=O)C1=CO[C@@H](OC(=O)NCCCl)[C@H]2[C@@H]1CC[C@@H]2C [I-258]	3.8	5.7
C=CCNC(=O)O[C@@H]1OC=C(C(=O)OC)[C@H]2CC=C(C)[C@@H]12 [I-123]	14.1	8
COC(=O)C1=CO[C@@H](OC(=O)N2CCC2)[C@H]2[C@@H]1CC[C@@H]2C [I-250]	4.1	8
COC(=O)C1=CO[C@@H](OC(=O)N(C)CCc2ccc(OC)c(OC)c2)[C@H]2[C@@H]1CC[C@@H]2C [I-227]	7.4	17.2
COC(=O)C1=CO[C@@H](OC(=O)NCc2nc3ccccc3[nH]2)[C@H]2[C@@H]1CC[C@@H]2C [I-252]	5.4	8.2
COC(=O)C1=CO[C@@H](OC(=O)Nc2cccc(C(F)(F)F)c2)[C@@H]2C(C)=CC[C@H]12 [I-160]	13.8	6.3
COC(=O)C1=CO[C@@H](OC(=O)NCCCN(C)C)[C@@H]2C(C)=CC[C@H]12 [I-105]	5.6	14.9
COC(=O)C1=CO[C@@H](OC(=O)NC2CCCCCC2)[C@@H]2C(C)=CC[C@H]12 [I-103]	8.3	5.1
COC(=O)C1=CO[C@@H](OC(=O)NCCCCl)[C@H]2[C@@H]1CC[C@@H]2C [I-244]	5.2	19.5
COC(=O)C1=CO[C@@H](OC(=O)Nc2ccc(OC(F)(F)F)cc2)[C@@H]2C(C)=CC[C@H]12 [I-165]	7.5	12.5
COC(=O)C1=CO[C@@H](OC(=O)NCc2ccc(Cl)cc2)[C@H]2[C@@H]1CC[C@@H]2C [I-214]	5.7	11.7
COC(=O)C1=CO[C@@H](OC(=O)NC(C)C)[C@H]2[C@@H]1CC[C@@H]2C [I-261]	32.1	37.5
CNC(=O)OC[C@]12O[C@H]1C[C@@H]1C(C(=O)OC)=COC[C@@H]12 [I-290]	13.5	51.5
COC(=O)C1=CO[C@@H](OC(=O)NCC#N)[C@@H]2C(C)=CC[C@H]12 [I-132]	3.9	15.6
COC(=O)C1=CO[C@@H](OC(=O)NCc2ccc(Cl)c(Cl)c2)[C@H]2[C@@H]1CC[C@@H]2C [I-196]	6.2	27.6
COC(=O)C1=CO[C@@H](OC(=O)NC(=O)c2ccccc2)[C@@H]2C(C)=CC[C@H]12 [I-153]	19	22.3
COC(=O)C1=CO[C@@H](OC(=O)Nc2ccc(Cl)c(Cl)c2)[C@H]2[C@@H]1CC[C@@H]2C [I-255]	6	6.5
COC(=O)C1=CO[C@@H](OC(=O)NCC2CCCO2)[C@@H]2C(C)=CC[C@H]12 (stereo partly shown) [I-78]	5.1	23.4
COC(=O)C1=CO[C@@H](OC(=O)Nc2ccccc2)[C@H]2[C@@H]1CC[C@@H]2C [I-271]	35.1	21.6
COC(=O)C1=CO[C@@H](OC(=O)Nc2ccc(F)cc2F)[C@@H]2C(C)=CC[C@H]12 [I-154]	56.2	
